Values quoted from earlier work in US20220226239A1, “POLYMERIC MICELLE COMPLEXES, FORMULATIONS, AND USES THEREOF” (ARAVASC INC., priority 2019, published 2022).

Legend:
[1] = for pKa (tri-protic phosphate), first value: first of three pKa values; for pKa (tri-protic phosphate), second value: second of three pKa values; for pKa (tri-protic phosphate), third value: third of three pKa values
[2] = target: T1, dihydropyrimidine dehydrogenase (DPD) (Homo sapiens, UniProt Q12882); details: background statement
T1 sequence (Q12882 4-1025): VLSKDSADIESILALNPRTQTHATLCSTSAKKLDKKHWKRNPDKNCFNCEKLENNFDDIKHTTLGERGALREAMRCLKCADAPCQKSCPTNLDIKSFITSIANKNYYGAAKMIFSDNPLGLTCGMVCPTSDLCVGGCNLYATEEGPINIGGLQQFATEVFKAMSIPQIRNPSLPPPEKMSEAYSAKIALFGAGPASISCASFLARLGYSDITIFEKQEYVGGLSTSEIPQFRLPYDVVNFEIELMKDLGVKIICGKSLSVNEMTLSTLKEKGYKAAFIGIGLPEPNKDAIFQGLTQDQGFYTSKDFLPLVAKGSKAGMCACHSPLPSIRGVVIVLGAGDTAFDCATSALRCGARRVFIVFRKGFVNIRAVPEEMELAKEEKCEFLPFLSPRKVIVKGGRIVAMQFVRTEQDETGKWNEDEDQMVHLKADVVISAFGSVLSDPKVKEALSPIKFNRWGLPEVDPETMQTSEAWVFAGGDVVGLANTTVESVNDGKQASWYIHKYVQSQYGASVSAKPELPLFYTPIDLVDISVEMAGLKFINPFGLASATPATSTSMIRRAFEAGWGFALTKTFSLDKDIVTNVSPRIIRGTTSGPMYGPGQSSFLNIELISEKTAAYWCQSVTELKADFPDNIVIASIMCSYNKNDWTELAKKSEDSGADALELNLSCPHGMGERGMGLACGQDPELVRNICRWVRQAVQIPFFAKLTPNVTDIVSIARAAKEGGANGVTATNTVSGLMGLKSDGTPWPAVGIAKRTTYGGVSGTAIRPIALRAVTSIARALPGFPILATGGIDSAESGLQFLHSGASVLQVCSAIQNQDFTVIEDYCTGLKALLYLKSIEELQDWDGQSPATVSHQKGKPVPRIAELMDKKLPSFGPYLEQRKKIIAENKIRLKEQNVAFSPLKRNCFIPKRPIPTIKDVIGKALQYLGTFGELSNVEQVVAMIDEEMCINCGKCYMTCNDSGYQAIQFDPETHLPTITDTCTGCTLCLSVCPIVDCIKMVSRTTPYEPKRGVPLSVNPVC

Row | Compound | pKa (tri-protic phosphate), first value [1] | Peturbed pKa (physiological pH) [1] | pKa (tri-protic phosphate), second value [1] | pKa (tri-protic phosphate), third value [1] | degradation by dihydropyrimidine dehydrogenase (DPD) [2] [%]
1 | O=c1[nH]c(=O)n([C@H]2C[C@H](O)[C@@H](COP(=O)(O)O)O2)cc1F [FdUMP, 5-Fluoro-2′-deoxyuridine-5′-O-monophosphate] | phosphate) 2.15, | 6-6.5 | 7.20 | 12.33 | 
2 | Nc1nc2c(ncn2[C@@H]2O[C@@H]3COP(=O)(O)O[C@H]4[C@@H](O)[C@H](n5cnc6c(N)ncnc65)O[C@@H]4COP(=O)(O)O[C@@H]2[C@@H]3O)c(=O)[nH]1 [cGAMP, 2′, 3′ cyclic guanosine monophosphate-adenosine monophosphate] | phosphate) 2,15, | Greater than 6.5 | 7.20 | 12.33 | 
3 | O=c1[nH]cc(F)c(=O)[nH]1 [Formulation 5-FU, 5-fluorouracil] |  |  |  |  | > 80
